The values below come from article PMC11318023, “Discovery of VU6008677: A Structurally Distinct Tricyclic M4 Positive Allosteric Modulator with Improved CYP450 Profile” (ACS Medicinal Chemistry Letters, 2024).

Each structure is given as a SMILES string. pEC50, pIC50: −log10 of the molar value. Read-outs that look alike come from different tables or passages of the source.

Details of data set [1]: method as in PMID 18772318, PMID 24442096, PMID 34710625. The settings on record: rat brain; Figure 1, earlier M4 PAMs; cited from earlier work.
Details of data set [2]: method as in PMID 18772318, PMID 24442096, PMID 34710625. The settings on record: rat; Figure 1, earlier M4 PAMs; cited from earlier work.
Details of data set [3]: method as in PMID 18772318, PMID 24442096, PMID 34710625. To be noted: Figure 1, earlier M4 PAMs; cited from earlier work.
Details of data set [4]: method as in PMID 18772318, PMID 24442096, PMID 34710625. The settings on record: human; Figure 1, earlier M4 PAMs; cited from earlier work.
In data set [5] the target is T1, CYP 1A2 (Homo sapiens, UniProt P05177).
T1 sequence (P05177 1-516): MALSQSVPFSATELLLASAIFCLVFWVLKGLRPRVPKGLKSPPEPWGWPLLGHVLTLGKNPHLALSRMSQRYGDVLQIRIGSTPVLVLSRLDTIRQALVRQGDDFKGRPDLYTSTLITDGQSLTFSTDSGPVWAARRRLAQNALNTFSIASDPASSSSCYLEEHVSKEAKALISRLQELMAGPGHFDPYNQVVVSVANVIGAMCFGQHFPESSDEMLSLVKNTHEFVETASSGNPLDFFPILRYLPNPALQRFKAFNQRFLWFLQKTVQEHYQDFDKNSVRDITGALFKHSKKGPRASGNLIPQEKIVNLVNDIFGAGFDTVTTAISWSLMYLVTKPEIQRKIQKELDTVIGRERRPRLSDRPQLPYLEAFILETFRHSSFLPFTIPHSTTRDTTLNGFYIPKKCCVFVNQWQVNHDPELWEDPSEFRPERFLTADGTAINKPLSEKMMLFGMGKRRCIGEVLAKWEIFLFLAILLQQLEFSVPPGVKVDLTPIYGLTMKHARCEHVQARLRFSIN
Details: method as in PMID 23177787. The settings on record: Figure 1; read-out: Cyp P450 Inhibition (1A2); cited from earlier work.

The target of data set [6] is T2, CYP 2D6 (Homo sapiens, UniProt P10635). On the set-up: method as in PMID 23177787. To be noted: Figure 1; read-out: Cyp P450 Inhibition (2D6); cited from earlier work.
The target in data set [7] is T3, CYP 2C9 (Homo sapiens, UniProt P11712). On the set-up: method as in PMID 23177787. The settings on record: Figure 1; read-out: Cyp P450 Inhibition (2C9); cited from earlier work.
For data set [8], the target named is T4, human M2 (hM2) (Homo sapiens, UniProt P08172).
T4 construct: expressed in transfected cells
T4 sequence (P08172 1-466): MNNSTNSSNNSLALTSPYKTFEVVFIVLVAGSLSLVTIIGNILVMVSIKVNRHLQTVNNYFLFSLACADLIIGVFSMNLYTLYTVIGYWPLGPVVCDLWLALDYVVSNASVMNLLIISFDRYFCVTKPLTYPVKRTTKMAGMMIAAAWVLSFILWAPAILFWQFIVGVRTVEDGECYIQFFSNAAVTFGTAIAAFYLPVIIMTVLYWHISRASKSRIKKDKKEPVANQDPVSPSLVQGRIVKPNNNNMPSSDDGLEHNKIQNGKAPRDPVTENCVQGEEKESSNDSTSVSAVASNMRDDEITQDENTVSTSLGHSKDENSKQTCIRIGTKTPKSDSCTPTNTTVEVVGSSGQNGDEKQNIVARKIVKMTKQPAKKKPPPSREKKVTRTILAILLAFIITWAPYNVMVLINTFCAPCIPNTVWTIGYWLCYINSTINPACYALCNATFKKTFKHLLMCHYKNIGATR
Briefly: Calcium mobilization assay, hM2/Gqi5-CHO cells, with EC20 acetylcholine. The class given is cell-based. The source says: buffer remained in the cell plates. […] After establishment of a […]
On the technique in general: A change in cytosolic calcium serves as a functional read-out for many receptors and channels.

Data set [9] in a line: Intrinsic clearance in rat liver microsomes (substrate depletion), predicted hepatic clearance. The class given is in vitro ADME. To be noted: for CLint scaled at 1 µM: pH 7.4, rat liver microsomes; for CLhep, rat (predicted hepatic clearance): predicted from rat microsomal CLint.
The target of data set [10] is CYP 3A4 (Homo sapiens, UniProt P08684). Briefly: CYP450 inhibition in pooled human liver microsomes, CYP-specific probe substrates. The class given is in vitro ADME. To be noted: pooled HLM, NADPH, CYP-specific probe substrate. Background: Microsomes from liver hold many membrane-bound enzymes, among them those of drug oxidation.
The nature of data set [11]: Intrinsic clearance in human liver microsomes (substrate depletion), predicted hepatic clearance. The class given is in vitro ADME. The settings on record: for CLint scaled at 1 µM: pH 7.4, human liver microsomes; for CLhep, human (predicted hepatic clearance): predicted from human microsomal CLint.
A short description of data set [12]: Binding in brain homogenate from rat, equilibrium dialysis. The class given is in vitro ADME. The settings on record: rat, brain homogenate, rat brain homogenates, read-out: rat fu,brain. (Equilibrium dialysis compares concentrations on both sides of a semipermeable membrane.)
The nature of data set [13]: Binding in plasma from human, equilibrium dialysis. The class given is in vitro ADME. The settings on record: for fraction unbound at 6 h, 5 µM: human, plasma, read-out: human fu,plasma.
Data set [14] can be described thus: Binding in plasma from rat, equilibrium dialysis. The settings on record: read-out: rat fu,plasma. The class given is in vitro ADME.
Data set [15] has as its target T1, CYP 1A2. Briefly: CYP450 inhibition in pooled human liver microsomes, CYP-specific probe substrates. The settings on record: for pIC50: pooled HLM, NADPH, CYP-specific probe substrate. The class given is in vitro ADME.
For data set [16], the target named is T2, CYP 2D6. The description is as above. The class given is in vitro ADME. The settings on record: pooled HLM, NADPH, CYP-specific probe substrate.
Data set [17] has as its target T5, human M4 (hM4) (Homo sapiens, UniProt P08173).
T5 sequence (P08173 1-479): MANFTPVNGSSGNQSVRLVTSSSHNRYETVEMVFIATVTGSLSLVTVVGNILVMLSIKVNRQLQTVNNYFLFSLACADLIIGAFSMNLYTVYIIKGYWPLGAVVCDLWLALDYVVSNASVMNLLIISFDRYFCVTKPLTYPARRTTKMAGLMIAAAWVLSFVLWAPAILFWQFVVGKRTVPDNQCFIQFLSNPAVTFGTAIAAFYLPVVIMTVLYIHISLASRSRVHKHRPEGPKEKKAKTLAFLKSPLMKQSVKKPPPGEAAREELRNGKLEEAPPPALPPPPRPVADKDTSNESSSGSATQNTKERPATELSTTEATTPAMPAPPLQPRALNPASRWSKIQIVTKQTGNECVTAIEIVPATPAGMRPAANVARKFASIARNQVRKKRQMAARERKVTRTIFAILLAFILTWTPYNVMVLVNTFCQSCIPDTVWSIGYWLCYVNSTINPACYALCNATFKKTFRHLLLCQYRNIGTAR
Briefly: Calcium mobilization assay, hM4/Gqi5-CHO cells, with EC20 acetylcholine (PAM). The settings on record: hM4/Gqi5-CHO cells, calcium mobilization; for hM4 pEC50 / hM4 %ACh Max: EC20 acetylcholine; for hM4 %ACh Max: maximum response; for pEC50: read-out: hM4 EC50, EC20 fixed concentration of acetylcholine.

The target in data set [18] is T3, CYP 2C9. Briefly: CYP450 inhibition in pooled human liver microsomes, CYP-specific probe substrates. The class given is in vitro ADME. To be noted: pooled HLM, NADPH, CYP-specific probe substrate.

Usually pEC50 stands for −log10 of the EC50, conventionally taken in molar units. One may read the CLint scaled as the capacity of the preparation to metabolise the compound, expressed as a volume cleared per time.

T2 sequence (P10635 whole entry): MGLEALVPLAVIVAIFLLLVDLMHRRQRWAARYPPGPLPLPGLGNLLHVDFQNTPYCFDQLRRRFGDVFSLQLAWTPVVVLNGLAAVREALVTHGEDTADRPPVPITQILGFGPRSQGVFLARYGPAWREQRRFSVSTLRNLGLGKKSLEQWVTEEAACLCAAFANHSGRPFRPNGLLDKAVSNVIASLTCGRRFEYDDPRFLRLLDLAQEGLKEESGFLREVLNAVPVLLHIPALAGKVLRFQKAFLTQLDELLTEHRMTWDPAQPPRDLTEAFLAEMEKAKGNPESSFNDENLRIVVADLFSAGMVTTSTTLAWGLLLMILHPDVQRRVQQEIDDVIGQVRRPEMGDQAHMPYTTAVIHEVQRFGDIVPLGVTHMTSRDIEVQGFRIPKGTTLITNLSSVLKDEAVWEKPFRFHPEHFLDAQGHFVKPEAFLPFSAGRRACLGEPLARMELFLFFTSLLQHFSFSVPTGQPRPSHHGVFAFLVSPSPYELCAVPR
CYP 3A4, sequence (P08684 whole entry): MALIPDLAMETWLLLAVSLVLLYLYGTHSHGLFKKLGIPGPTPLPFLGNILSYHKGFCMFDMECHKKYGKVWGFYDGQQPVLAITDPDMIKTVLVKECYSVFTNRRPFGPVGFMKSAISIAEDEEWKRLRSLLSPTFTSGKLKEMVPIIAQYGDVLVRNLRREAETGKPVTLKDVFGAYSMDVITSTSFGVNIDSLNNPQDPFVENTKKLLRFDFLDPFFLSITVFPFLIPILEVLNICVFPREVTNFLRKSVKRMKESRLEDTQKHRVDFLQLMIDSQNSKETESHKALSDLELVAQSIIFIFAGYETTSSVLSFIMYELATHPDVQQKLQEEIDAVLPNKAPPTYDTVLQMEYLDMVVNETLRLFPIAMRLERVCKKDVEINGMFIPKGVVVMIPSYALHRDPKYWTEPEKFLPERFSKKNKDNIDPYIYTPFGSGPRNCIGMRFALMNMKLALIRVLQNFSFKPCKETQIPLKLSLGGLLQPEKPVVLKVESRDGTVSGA
T3 sequence (P11712 whole entry): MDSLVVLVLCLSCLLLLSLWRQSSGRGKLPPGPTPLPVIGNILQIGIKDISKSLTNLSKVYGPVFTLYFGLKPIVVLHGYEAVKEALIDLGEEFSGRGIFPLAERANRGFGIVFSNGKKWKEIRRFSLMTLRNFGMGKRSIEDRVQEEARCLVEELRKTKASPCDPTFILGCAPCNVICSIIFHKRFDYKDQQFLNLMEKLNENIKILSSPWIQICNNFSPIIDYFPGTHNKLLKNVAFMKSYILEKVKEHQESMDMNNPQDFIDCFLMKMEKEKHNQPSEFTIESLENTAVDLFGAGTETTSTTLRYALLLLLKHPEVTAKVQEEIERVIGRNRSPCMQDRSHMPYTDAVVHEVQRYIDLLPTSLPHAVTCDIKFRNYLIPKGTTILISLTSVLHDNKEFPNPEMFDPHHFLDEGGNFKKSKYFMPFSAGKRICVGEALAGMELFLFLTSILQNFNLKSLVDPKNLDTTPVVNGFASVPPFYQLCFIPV

For the compound `Cc1cc(C)c2c(n1)sc1c(N3CC4(COC4)C3)ncnc12` [VU6007215], the “fu,b (r)” value in data set [1] is given as 0.019. Also, the “fu,plasma (r)” value in data set [2] is reported as 0.206. Further, the “rat CLhep” value in data set [3] was 63 mL/min/kg. For the same compound, in data set [4], the “fu,plasma (h)” value is given as 0.056.

For the compound `Cc1nc2sc(C(=O)NCc3ccncc3)c(N)c2c(C)c1Cl` [ML253], the pIC50 in data set [5] is 6.92; in data set [6], 6.15; in data set [7], more than 7.00.

In the case of `Cc1c(Cl)cnc2sc3c(NC4CC4)ncnc3c12` [Compound 15g], the negative logarithm of the EC50 (pEC50) in [8] is 6.32; in data set [17] it was 7.60. For the same compound, the “hM2 % ACh Max” value in [8] was 40%. Besides, the intrinsic clearance (CLint scaled) at 1 µM was 789 mL/min/kg in [9] and 57 mL/min/kg in data set [11]. The “CLhep, rat (predicted hepatic clearance)” value in [9] was 64 mL/min/kg. Further, the pIC50 in data set [10] is 4.61; in data set [15], more than 7.00; in [16], less than 4.52; in data set [18] it was less than 4.52. Besides, the “CLhep, human (predicted hepatic clearance)” value in data set [11] is 15 mL/min/kg. For the same compound, the fraction unbound at 6 h, 1 µM in [12] was determined as 0.003. For the same compound, the fraction unbound at 6 h, 5 µM in [13] came to 0.01; in [14] it was 0.039. For the same compound, the “hM4 pEC50” value in data set [17] is 7.60. For the same compound, the “hM4 %ACh Max” value in data set [17] turned out to be 110%.

Take `Cc1nc2oc3c(NC4CC4)ncnc3c2c(C)c1Cl.Cl` [Compound 14o]: in [8], the “hM2 EC50” value is “inactive”. In addition, the CLint scaled at 1 µM is 175 mL/min/kg in [9] and 37 mL/min/kg in [11]. Further, the “CLhep, rat (predicted hepatic clearance)” value in data set [9] is listed as 50 mL/min/kg. Further, the pIC50 was not above 4.52 in data set [10], more than 7.00 in [15], not above 4.52 in [16] and not above 4.52 in data set [18]. Also, the “CLhep, human (predicted hepatic clearance)” value in data set [11] is recorded as 13 mL/min/kg. In addition, the fraction unbound at 6 h, 1 µM in data set [12] was determined as 0.017. Also, the “human fu,plasma” value in data set [13] (fraction unbound) was 0.007. For the same compound, the fraction unbound at 6 h, 5 µM in data set [13] is less than 0.01; in data set [14] it was 0.06.

As to `Cc1nc2sc3c(NC4CCC4)nncc3c2c(C)c1Cl.Cl` [Compound 22j], the negative-log EC50 (pEC50) in data set [8] was less than 5.00. Also, the “hM2 % ACh Max” value in [8] was 44%. Further, the CLint scaled at 1 µM in [9] is 1280 mL/min/kg; in data set [11], 49 mL/min/kg. Moreover, in data set [9], the “CLhep, rat (predicted hepatic clearance)” value was 66 mL/min/kg. Besides, the pIC50 in data set [10] is less than 4.52; in data set [15], 6.28; in [16], 4.72; in data set [18], less than 4.52. In addition, the “CLhep, human (predicted hepatic clearance)” value in data set [11] is given as 15 mL/min/kg. Also, the fraction unbound at 6 h, 1 µM in data set [12] is 0.006. Further, the fraction unbound at 6 h, 5 µM in [13] turned out to be 0.005; in [14] it was 0.026.

As for `Cc1nc2sc3c(NC4CC4)nncc3c2c(C)c1Cl.Cl` [Compound 22i], in [8], the “hM2 EC50” value was “inactive”. The intrinsic metabolic clearance (CLint scaled) at 1 µM in data set [9] is 420 mL/min/kg; in [11] it was 52 mL/min/kg. The “CLhep, rat (predicted hepatic clearance)” value in data set [9] is listed as 60 mL/min/kg. Moreover, the pIC50 was 4.54 in data set [10], more than 7.00 in [15], 5.10 in [16] and 4.72 in data set [18]. Moreover, the “CLhep, human (predicted hepatic clearance)” value in [11] is reported as 15 mL/min/kg. Also, the fraction unbound at 6 h, 1 µM in data set [12] was found to be 0.011. In addition, the fraction unbound at 6 h, 5 µM was 0.013 in [13] and 0.042 in [14]. Besides, the “hM4 pEC50” value in data set [17] turned out to be 7.19. Also, the “hM4 %ACh Max” value in data set [17] is on record as 88%. For the same compound, the negative logarithm of the EC50 (pEC50) in data set [17] is 7.19.

`Cc1c(Cl)cnc2sc3c(N4CC(C#N)C4)ncnc3c12` [Compound 15f]: the “hM2 EC50” value in [8] is “inactive”. Moreover, the CLint scaled at 1 µM in data set [9] is 642 mL/min/kg; in [11], 224 mL/min/kg. In addition, the “CLhep, rat (predicted hepatic clearance)” value in data set [9] was 63 mL/min/kg. The pIC50 is less than 4.52 in data set [10], 6.44 in data set [15], less than 4.52 in data set [16] and less than 4.52 in data set [18]. Further, the “CLhep, human (predicted hepatic clearance)” value in data set [11] is 19 mL/min/kg. Besides, the fraction unbound at 6 h, 1 µM in [12] came to 0.002. Moreover, the fraction unbound at 6 h, 5 µM in [13] was 0.02; in data set [14], 0.171. Moreover, in [15] (vs ML253), the “fold improvement of CYP 1A2 inhibition compared with ML253” value was found to be 3 fold.

Consider `COc1ccc(CNC(=O)c2sc3nc(C)cc(C)c3c2N)cc1` [VU0152100], for which, in data set [1], the “fu,b (r)” value was 0.045. The “fu,plasma (r)” value in data set [2] is on record as 0.011. Further, the “rat CLhep” value in data set [3] was 65 mL/min/kg.
